Tests used:
[1] = tested on: advanced head, neck, breast and ovarian cancer; conditions: small group of patients with advanced head; cited from earlier work
[2] = tested on: cancer cell lines B16-F0, Hs294T, LoVo, LoVo/DX, MCF-7, MV-4-11; test: In vitro cytotoxicity tests (SRB / MTT) on cancer cell lines; type: cell-based, human and murine; conditions: versus salinomycin; from Table 3 IC50 data; 72 hours incubation
Description: (§1) The solvent for further dilutions was a culture medium.
(§2) The experiments were repeated at least 3 times.
(§3) After 4 hours of incubation at 37° C., 80 μL of lysis buffer was added to each well.

[3] = tested on: MV-4-11 (human biphenotypic leukaemia); test: In vitro cytotoxicity test, MTT assay, MV-4-11; type: cell-based; conditions: 72 hours incubation
Description: as §1, §2, §3

CC[C@@H](C(=O)[C@@H](C)[C@@H](O)[C@H](C)[C@@H]1O[C@@H]([C@@H](CC)C(=O)O)CC[C@@H]1C)[C@H]1O[C@]2(C=C[C@@H](O)[C@]3(CC[C@@](C)([C@H]4CC[C@](O)(CC)[C@H](C)O4)O3)O2)[C@H](C)C[C@@H]1C [Salinomycin]
effect on cancer progression [1]: inhibition of cancer progression | side effects [1]: no acute side effects

CC[C@@H](C(=O)[C@@H](C)[C@@H](O)[C@H](C)[C@@H]1O[C@@H]([C@@H](CC)C(=O)O)CC[C@@H]1C)[C@H]1O[C@]2(C=C[C@@H](NC(=O)C(C)C)[C@]3(CC[C@@](C)([C@H]4CC[C@](O)(CC)[C@H](C)O4)O3)O2)[C@H](C)C[C@@H]1C [formula (10), C20-dehydroxy-C20-aminosalinomycin N-isobutyramide]
anti-proliferative effect compared to the parent compound [2]: several times more potent

CC[C@@H](C(=O)[C@@H](C)[C@@H](O)[C@H](C)[C@@H]1O[C@@H]([C@@H](CC)C(=O)O)CC[C@@H]1C)[C@H]1O[C@]2(C=C[C@@H](NC(=O)c3ccccc3)[C@]3(CC[C@@](C)([C@H]4CC[C@](O)(CC)[C@H](C)O4)O3)O2)[C@H](C)C[C@@H]1C [formula (15), C20-dehydroxy-C20-aminosalinomycin N-benzamide]
anti-proliferative effect compared to the parent compound [2]: several times more potent

C#CCOC(=O)N[C@@H]1C=C[C@]2(O[C@H]([C@@H](CC)C(=O)[C@@H](C)[C@@H](O)[C@H](C)[C@@H]3O[C@@H]([C@@H](CC)C(=O)O)CC[C@@H]3C)[C@@H](C)C[C@H]2C)O[C@@]12CC[C@@](C)([C@H]1CC[C@](O)(CC)[C@H](C)O1)O2 [formula (22), C20-dehydroxy-C20-aminosalinomycin N-propargylcarbamate]
anti-proliferative effect compared to the parent compound [2]: tens of times more potent

CC[C@@H](C(=O)[C@@H](C)[C@@H](O)[C@H](C)[C@@H]1O[C@@H]([C@@H](CC)C(=O)[O-])CC[C@@H]1C)[C@H]1O[C@]2(C=C[C@@H](NC(=O)NCCCCl)[C@]3(CC[C@@](C)([C@H]4CC[C@](O)(CC)[C@H](C)O4)O3)O2)[C@H](C)C[C@@H]1C.[Na+] [formula (25), 3-chloropropylurea of C20-dehydroxy-C20-aminosalinomycin]
effect against biphenotypic leukaemia cells [3]: preferred effect | anti-proliferative effect compared to the parent compound [2]: tens of times more potent

Source: US20220402932A1, “Compounds Constituting C20-Modified Salinomycin Derivatives, a Method for Obtaining the Same, a Composition Containing the Same, a Use of Said Compounds and a Method for Obtaining an Intermediate Product” (FILECLO SP. Z O.O., priority 2020, published 2022)
